# Source: ChEMBL document CHEMBL1201862, “PubChem BioAssay data set” (2004)
#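 Cells were grown in 96-well plates and exposed to each compound for 48 hours at five concentrations; endpoints were interpolated linearly between bracketing concentrations, or set to the highest concentration if not reached. GI50: concentration for 50% inhibition of growth.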 The source made the active and inactive calls. Cut-off read from the data, not from the text of the source: active = GI50 up to about 1.1 µM and inactive = higher.
# Key:
# Assay in all cases: NCI-60 cell line screen, 48 h
# [1] = test system: MDA-MB-435
# [2] = test system: HCC 2998
# [3] = test system: Malme-3M
# [4] = test system: NCI-H23
# [5] = test system: NCI-H226
# [6] = test system: M14
# [7] = test system: SR
# [8] = test system: K562
# [9] = test system: OVCAR-3
# [10] = test system: T47D
# [11] = test system: UACC-257
# [12] = test system: SW-620
# [13] = test system: SK-OV-3
# [14] = test system: IGROV-1
# [15] = test system: 786-0
# [16] = test system: KM12
# [17] = test system: BT-549
# [18] = test system: U-251
# [19] = test system: MDA-N
# [20] = test system: MCF7
# [21] = test system: Hs-578T
# [22] = test system: HOP-92
# [23] = test system: CCRF-CEM
# [24] = test system: HCT-116
# [25] = test system: OVCAR-8
# [26] = test system: TK-10
# [27] = test system: SNB-19
# [28] = test system: ACHN
# [29] = test system: SF-268
# [30] = test system: RXF 393
# [31] = test system: COLO 205
# [32] = test system: HCT-15
# [33] = test system: MDA-MB-231
# [34] = test system: MOLT-4
# [35] = test system: LOX IMVI
# [36] = test system: PC-3
# [37] = test system: HOP-62
# [38] = test system: UO-31
# [39] = test system: SK-MEL-5
# [40] = test system: SF-539
# [41] = test system: SK-MEL-2
# [42] = test system: NCI-H460
# [43] = test system: NCI/ADR-RES
# [44] = test system: EKVX
# [45] = test system: HT-29
# [46] = test system: SF-295
# [47] = test system: DU-145
# [48] = test system: UACC-62
# [49] = test system: CAKI-1
# [50] = test system: OVCAR-4
# [51] = test system: SN12C
# [52] = test system: NCI-H522
# [53] = test system: SK-MEL-28
# [54] = test system: OVCAR-5
# [55] = test system: A498
# [56] = test system: A549
# [57] = test system: HL-60
# [58] = test system: RPMI-8226
compound,measurement,setting,value
Fc1ccccc1-c1cc(S)c2cc3c(cc2n1)OCO3,GI50,[1],3.59 µM (inactive)
same,GI50,[2],5.53 µM (inactive)
same,GI50,[3],11.7 µM (inactive)
same,GI50,[4],9.55 µM (inactive)
same,GI50,[5],19.2 µM (inactive)
same,GI50,[6],6.61 µM (inactive)
same,GI50,[7],4.34 µM (inactive)
same,GI50,[8],13.1 µM (inactive)
same,GI50,[9],10.9 µM (inactive)
same,GI50,[10],28.1 µM (inactive)
same,GI50,[11],8.47 µM (inactive)
same,GI50,[12],5.85 µM (inactive)
same,GI50,[13],16.1 µM (inactive)
same,GI50,[14],7.93 µM (inactive)
same,GI50,[15],10.4 µM (inactive)
same,GI50,[16],4.91 µM (inactive)
same,GI50,[17],61 µM (inactive)
same,GI50,[18],4.33 µM (inactive)
same,GI50,[19],3.03 µM (inactive)
same,GI50,[20],4.88 µM (inactive)
same,GI50,[21],5.24 µM (inactive)
same,GI50,[22],> 45.7 µM (inactive)
same,GI50,[23],13.4 µM (inactive)
same,GI50,[24],7.08 µM (inactive)
same,GI50,[25],17.8 µM (inactive)
same,GI50,[26],> 48.3 µM (inactive)
same,GI50,[27],15.2 µM (inactive)
same,GI50,[28],38 µM (inactive)
same,GI50,[29],> 44.8 µM (inactive)
same,GI50,[30],> 54.2 µM (inactive)
same,GI50,[31],28.6 µM (inactive)
same,GI50,[32],5.65 µM
same,GI50,[33],> 56.1 µM (inactive)
same,GI50,[34],9.62 µM (inactive)
same,GI50,[35],10.9 µM (inactive)
same,GI50,[36],6.08 µM (inactive)
same,GI50,[37],> 70.5 µM (inactive)
same,GI50,[38],27.5 µM (inactive)
same,GI50,[39],3.63 µM (inactive)
same,GI50,[40],7.18 µM (inactive)
same,GI50,[41],7.69 µM (inactive)
same,GI50,[42],4.57 µM (inactive)
same,GI50,[43],4.26 µM (inactive)
same,GI50,[44],10.5 µM (inactive)
same,GI50,[45],17.2 µM (inactive)
same,GI50,[46],7.91 µM (inactive)
same,GI50,[47],13 µM (inactive)
same,GI50,[48],3.71 µM (inactive)
same,GI50,[49],9.93 µM (inactive)
same,GI50,[50],> 100 µM (inactive)
same,GI50,[51],34.2 µM (inactive)
same,GI50,[52],13.8 µM (inactive)
same,GI50,[53],27.9 µM (inactive)
same,GI50,[54],> 51.3 µM (inactive)
same,GI50,[55],10.4 µM (inactive)
same,GI50,[56],5.52 µM (inactive)
O=c1oc2ccc([N+](=O)[O-])cc2cc1Br,GI50,[1],> 100 µM (inactive)
same,GI50,[2],> 100 µM (inactive)
same,GI50,[3],> 100 µM (inactive)
same,GI50,[4],> 100 µM (inactive)
same,GI50,[5],> 100 µM (inactive)
same,GI50,[6],35.7 µM (inactive)
same,GI50,[7],47.3 µM (inactive)
same,GI50,[8],> 100 µM (inactive)
same,GI50,[9],> 100 µM (inactive)
same,GI50,[10],70.6 µM (inactive)
same,GI50,[11],> 100 µM (inactive)
same,GI50,[12],> 100 µM (inactive)
same,GI50,[14],> 100 µM (inactive)
same,GI50,[15],> 100 µM (inactive)
same,GI50,[16],> 100 µM (inactive)
same,GI50,[17],> 100 µM (inactive)
same,GI50,[18],> 100 µM (inactive)
same,GI50,[19],> 100 µM (inactive)
same,GI50,[57],39 µM (inactive)
same,GI50,[20],> 100 µM (inactive)
same,GI50,[21],> 100 µM (inactive)
same,GI50,[22],86.3 µM (inactive)
same,GI50,[23],57.5 µM (inactive)
same,GI50,[24],> 100 µM (inactive)
same,GI50,[25],> 100 µM (inactive)
same,GI50,[26],> 100 µM (inactive)
same,GI50,[27],> 100 µM (inactive)
same,GI50,[28],78.5 µM (inactive)
same,GI50,[29],27.4 µM (inactive)
same,GI50,[30],21.7 µM (inactive)
same,GI50,[31],> 100 µM (inactive)
same,GI50,[33],> 100 µM (inactive)
same,GI50,[34],> 100 µM (inactive)
same,GI50,[35],61.2 µM (inactive)
same,GI50,[36],> 100 µM (inactive)
same,GI50,[37],71.6 µM (inactive)
same,GI50,[38],> 100 µM (inactive)
same,GI50,[39],> 100 µM (inactive)
same,GI50,[40],> 100 µM (inactive)
same,GI50,[41],> 100 µM (inactive)
same,GI50,[42],> 100 µM (inactive)
same,GI50,[58],53.7 µM (inactive)
same,GI50,[43],> 100 µM (inactive)
same,GI50,[44],> 100 µM (inactive)
same,GI50,[45],> 100 µM (inactive)
same,GI50,[46],> 100 µM (inactive)
same,GI50,[47],> 100 µM (inactive)
same,GI50,[48],31.6 µM (inactive)
same,GI50,[49],> 100 µM (inactive)
same,GI50,[50],> 100 µM (inactive)
same,GI50,[51],> 100 µM (inactive)
same,GI50,[52],> 100 µM (inactive)
same,GI50,[53],> 100 µM (inactive)
same,GI50,[54],> 100 µM (inactive)
same,GI50,[55],> 100 µM (inactive)
same,GI50,[56],> 100 µM (inactive)
